Source: ChEMBL document CHEMBL1137126, “Aza-boronic acids as non-beta-lactam inhibitors of AmpC-beta-lactamase” (Bioorg Med Chem Lett, 2004)
Values after ≈ are worked out from the molar mass of the structure shown.

How the values were obtained:
[1] = molecular target: Beta-lactamase (Escherichia coli K-12, UniProt P00811); experiment: Apparent inhibition constant against Escherichia coli AmpC beta-lactamase
[2] = system: Escherichia coli; experiment: Minimum inhibitory concentration of compound against Escherichia coli K12AmpC-Ent
[3] = system: Citrobacter freundii; experiment: Minimum inhibitory concentration of compound against Citrobacter freundii derepressed 91/98-2; format: functional
[4] = system: Pseudomonas aeruginosa; experiment: Minimum inhibitory concentration of compound against Pseudomonas aeruginosa derepressed 88/98; format: functional
[5] = system: Enterobacter cloacae; experiment: Minimum inhibitory concentration of compound against Enterobacter cloacae derepressed 12991 ED; format: functional
[6] = system: Escherichia coli; experiment: Minimum inhibitory concentration of compound against Escherichia coli derepressed

Chain of Beta-lactamase (P00811 whole entry): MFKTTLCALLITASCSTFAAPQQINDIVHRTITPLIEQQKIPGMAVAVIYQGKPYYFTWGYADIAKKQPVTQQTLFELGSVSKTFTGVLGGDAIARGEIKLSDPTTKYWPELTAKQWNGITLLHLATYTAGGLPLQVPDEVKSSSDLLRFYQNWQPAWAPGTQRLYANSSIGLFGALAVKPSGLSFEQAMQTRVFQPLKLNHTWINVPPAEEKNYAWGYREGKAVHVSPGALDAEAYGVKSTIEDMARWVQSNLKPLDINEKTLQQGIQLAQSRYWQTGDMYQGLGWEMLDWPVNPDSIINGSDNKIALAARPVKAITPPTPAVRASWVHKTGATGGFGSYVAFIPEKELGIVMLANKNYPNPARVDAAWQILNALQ

Row | SMILES | Ki [1] [nM] | other results
1 | OB(O)c1cccc(/N=N/c2ccc(O)cc2)c1 | 700 | –
2 | OB(O)c1cccc(/N=N/c2ccc(/N=N/c3c(O)ccc4ccccc34)cc2O)c1 | 1800 | –
3 | OB(O)c1cccc(/N=N/c2c(O)cc(O)c3ccccc23)c1 | 450 | –
4 | OB(O)c1cccc(/N=N/c2cc(Cl)c(O)c(Cl)c2)c1 | 3000 | –
5 | OB(O)c1cccc(/N=N/c2ccccc2O)c1 | 3500 | –
6 | OB(O)c1cccc(/N=N/c2ccc(/N=N/c3c(O)cc(O)c4ccccc34)cc2O)c1 | 700 | –
7 | O=[N+]([O-])c1cccc(/N=N/c2cccc(B(O)O)c2)c1O | 1500 | –
8 | OB(O)c1cccc(/N=N/c2c(O)ccc3ccccc23)c1 | 300 | –
9 | Nc1cc(B(O)O)ccc1/N=N/c1cccc(B(O)O)c1 | 2700 | –
10 | O=S(=O)(O)c1cc(S(=O)(=O)c2cccc(/N=N/c3cccc(B(O)O)c3)c2)cs1 | 2000 | –
11 | OB(O)c1cccc(/N=N/c2ccc(O)c3ccccc23)c1 | 900 | –
12 | O=S(=O)(O)c1cc(/N=N/c2cccc(B(O)O)c2)c(O)c2ccccc12 | 5000 | –
13 | Cc1noc(C)c1/N=N/c1cccc(B(O)O)c1 | 1000 | –
14 | OB(O)c1cc(/N=N/c2ccc(Br)cc2)ccc1O | 3000 | –
15 | CC(C)(O/N=C(\C(=O)N[C@@H]1C(=O)N2C(C(=O)[O-])=C(C[n+]3ccccc3)CS[C@H]12)c1csc(N)n1)C(=O)O [CEFTAZIDIME] | – | MIC [2]: 64 µg/mL (≈ 117 µM); MIC [3]: 64 µg/mL (≈ 117 µM); MIC [4]: 128 µg/mL (≈ 234 µM); MIC [5]: 256 µg/mL (≈ 468 µM); MIC [6]: 128 µg/mL (≈ 234 µM)
